Measurements: publication PMC4109950, “Novel Small Molecule XPO1/CRM1 Inhibitors Induce Nuclear Accumulation of TP53, Phosphorylated MAPK and Apoptosis in Human Melanoma Cells” (PLoS ONE, 2014)

What was measured:
CHL-1 [1] = experiment: Cell cycle assay (PI, flow cytometry); assay type: cell-based, human; details: CHL-1, 1 µM, 24 h or 48 hr, PI staining
Experimental: (§1) Cell-cycle analysis was conducted using propidium iodide (PI) following the manufacturer's protocol (BD Pharmigen). Cells were plated in 6-well plates and treated for 24 h or 48 hr with 1 µM of KPT-185. A total of 1×10^5 cells per analysis were examined by flow cytometry (FACSCalibur), and analyzed using ModFit LT 3.3.

A375 [2] = experiment: Cell cycle assay (PI, flow cytometry); assay type: cell-based, human; details: A375, 1 µM, 24 h or 48 hr, PI staining
Experimental: as §1

CHL-1 [3] = experiment: Subcellular fractionation and immunoblot analysis; assay type: cell-based, human
Experimental: (§2) Human melanoma cell lines were seeded in 6-well plates (2×10^5) and allowed to adhere overnight. After treatment for various time points, the cells were harvested then fractionated using NE-PER Nuclear and Cytoplasmic Extraction Reagents from Thermo Scientific following the manufacturer's protocol. Nuclear and cytoplasmic fractions were validated via immunoblot analysis using Lamin B and GAPDH antibodies. Immunoblots were prepared as previously described and probed with antibodies specific for TP53, CDKN1A (p21), XPO1, HDM2 (MDM2), Lamin B (Santa Cruz Biotechnology, Santa Cruz, CA), pMAPK, PARP (Cell Signaling Technology), GAPDH or β-actin (Sigma). Following incubation with the appropriate horseradish peroxidase-conjugated secondary antibody, immune complexes were detected using the ECL Plus detection kit (Amersham Biosciences, Ayesbury, UK).

A375 [4] = experiment: Subcellular fractionation and immunoblot analysis; assay type: cell-based, human
Experimental: as §2

Hs294T [5] = experiment: Apoptosis via Annexin V/PI staining, flow cytometry; assay type: cell-based; details: Homo sapiens, Hs 294T, 72 hr treatment
Experimental: (§3) Phosphatidyl serine exposure was assessed in tumor cells and melanocytes by flow cytometry using APC-Annexin V and propidium iodide (PI; BD Pharmingen, San Diego, CA) as previously described. Each analysis was performed utilizing at least 10,000 events. We considered the Annexin V positive cells (early apoptosis) and Annexin V/PI double positive cells (late apoptosis) cells as the apoptotic cell population. The 4-parameter logistic or Hill model was the assumed dose-response relationship for the in vitro inhibition and cell viability experiments. Nonlinear least squares regression was used to estimate the model parameters and generate 95% confidence intervals for the IC50 estimates. For in vivo experiments, tumor volumes were first log-transformed to meet test assumptions of normality and homoscedasticity. Changes in tumor volumes were analyzed using a two-sample t-test to evaluate the difference from first day of treatment to the last for A375 xenografts (day 17), and from day 1 to day 10 for CHL-1 xenografts as day 10 marks the first mouse sacrificed when 1500 mm^3 tumor volume was reached. ANOVA was used to compare the expression of XPO1 staining among samples from the melanoma tissue core array. The Wilcoxon rank-sum test was used to analyze data comparing growth inhibition and apoptosis of the five metastatic melanoma cell lines to the three melanocyte cell lines.

CHL-1 [6] = experiment: as above; assay type: cell-based; details: Homo sapiens, CHL-1, 72 hr treatment
Experimental: as §3

FO-1 [7] = experiment: as above; assay type: cell-based; details: Homo sapiens, FO-1, 72 hr treatment
Experimental: as §3

HEM-l [8] = experiment: as above; assay type: cell-based; details: Homo sapiens, Melanocyte, HEM-l primary melanocytes, 72 hr treatment
Experimental: as §3

A375 [9] = experiment: as above; assay type: cell-based; details: Homo sapiens, A-375, A375, 72 hr treatment
Experimental: as §3

Wm1366 [10] = experiment: as above; assay type: cell-based; details: Homo sapiens, Wm1366, 72 hr treatment
Experimental: as §3

Hs294T [11] = experiment: Cellular growth assay (MTS), 72 h; assay type: cell-based; details: Homo sapiens, Hs 294T, 72 hr treatment, read-out: Growth Inhibition IC50
Experimental: (§4) Cells were seeded in 96-well plates (2×10^4) in triplicate and allowed to adhere overnight. Fresh media containing KPT-185, KPT-185-trans, KPT-276, or KPT-330 was added to each well at various concentrations (range = 40–10240 nM) and cells were incubated at 37°C/5% CO2 for 72 hours. Cells treated with DMSO (diluent) and untreated cells served as controls. At this time, the percentage of cell growth was evaluated using the MTS assay (CellTiter 96 AQueous Non-Radioactive Cell Proliferation Assay, Promega) and quantified by determining the optical density at 595 nm using a Bio-Rad iMark™ microplate reader. The 4-parameter logistic or Hill model was the assumed dose-response relationship for the in vitro inhibition and cell viability experiments. Nonlinear least squares regression was used to estimate the model parameters and generate 95% confidence intervals for the IC50 estimates. For in vivo experiments, tumor volumes were first log-transformed to meet test assumptions of normality and homoscedasticity. Changes in tumor volumes were analyzed using a two-sample t-test to evaluate the difference from first day of treatment to the last for A375 xenografts (day 17), and from day 1 to day 10 for CHL-1 xenografts as day 10 marks the first mouse sacrificed when 1500 mm^3 tumor volume was reached. ANOVA was used to compare the expression of XPO1 staining among samples from the melanoma tissue core array. The Wilcoxon rank-sum test was used to analyze data comparing growth inhibition and apoptosis of the five metastatic melanoma cell lines to the three melanocyte cell lines.

HEM-l [12] = experiment: Cellular growth assay (MTS), 72 h; assay type: cell-based; details: Homo sapiens, Melanocyte, HEM-l primary melanocytes, 72 hr treatment, read-out: Growth Inhibition IC50
Experimental: as §4

Wm1366 [13] = experiment: Cellular growth assay (MTS), 72 h; assay type: cell-based; details: Homo sapiens, Wm1366, 72 hr treatment, read-out: Growth Inhibition IC50
Experimental: as §4

HEMn-MP [14] = experiment: Apoptosis via Annexin V/PI staining, flow cytometry; assay type: cell-based, human; details: HEMn-MP primary melanocytes, 72 hr, range 0–10.24 µM
Experimental: as §3

HEMn-DP [15] = experiment: as above; assay type: cell-based, human; details: HEMn-DP primary melanocytes, 72 hr, range 0–10.24 µM
Experimental: as §3

melanoma cell lines = experiment: Immunoblot analysis of PARP cleavage; assay type: cell-based, human; details: KPT-185 at the IC50 for apoptosis for each cell line
Experimental: Immunoblots were prepared as previously described and probed with antibodies specific for TP53, CDKN1A (p21), XPO1, HDM2 (MDM2), Lamin B (Santa Cruz Biotechnology, Santa Cruz, CA), pMAPK, PARP (Cell Signaling Technology), GAPDH or β-actin (Sigma). Following incubation with the appropriate horseradish peroxidase-conjugated secondary antibody, immune complexes were detected using the ECL Plus detection kit (Amersham Biosciences, Ayesbury, UK).

HEMn-MP [16] = experiment: Cellular growth assay (MTS), 72 h; assay type: cell-based, human; details: HEMn-MP primary melanocytes, highest concentration 10240 nM
Experimental: as §4

CHL-1 [17] = experiment: Cellular growth assay (MTS), 72 h; assay type: cell-based, human; details: Homo sapiens, CHL-1, 72 hr treatment, read-out: Growth Inhibition IC50
Experimental: as §4

FO-1 [18] = experiment: Cellular growth assay (MTS), 72 h; assay type: cell-based, human; details: FO-1, 72 hr treatment, read-out: Growth Inhibition IC50
Experimental: as §4

HEMn-DP [19] = experiment: Cellular growth assay (MTS), 72 h; assay type: cell-based, human; details: HEMn-DP primary melanocytes, highest concentration 10240 nM
Experimental: as §4

A375 [20] = experiment: Cellular growth assay (MTS), 72 h; assay type: cell-based, human; details: A375, 72 hr treatment, read-out: Growth Inhibition IC50
Experimental: as §4

[21] = Homo sapiens, Melanocyte, read-out: Growth Inhibition IC50

IC50 (Hs294T [5]): 0.212 µM | IC50 (CHL-1 [6]): 2.41 µM | IC50 (FO-1 [7]): 0.297 µM | IC50 (HEM-l [8]): 3.17 µM | IC50 (A375 [9]): 0.147 µM | IC50 (Wm1366 [10]): 0.661 µM | Apoptosis IC50 (HEMn-MP [14]): not achievable | Apoptosis IC50 (HEMn-MP [14]; listed as KPT185): Not achieved | Apoptosis IC50 (HEMn-DP [15]): not achievable | Apoptosis IC50 (HEMn-DP [15]; listed as KPT185): Not achieved | IC50 (A375 [20]): 0.0459 µM | IC50 (A375 [20]; Homo sapiens, A-375, 72 h): ~0.05 µM
Structure (SMILES): COc1cc(-c2ncn(/C=C\C(=O)OC(C)C)n2)cc(C(F)(F)F)c1 [KPT-185]
Cell cycle effect (CHL-1 [1]): arrested in the G1 phase | Cell cycle effect (A375 [2]): arrested in the G1 phase | TP53 or CDKN1A induction (CHL-1 [3]; CHL-1 (mutated TP53), 500 nM): only limited TP53 or CDKN1A induction | Nuclear accumulation of phosphorylated MAPK (CHL-1 [3]; CHL-1, nuclear fraction, immunoblot): accumulated in the nuclear compartment | Expression of TP53 protein (A375 [4]; A375 (TP53 WT), 500 nM, nuclear localization at 16 hour): upregulated | CDKN1A expression (A375 [4]; A375, 500 nM): upregulation | HDM2 expression in cytoplasmic and nuclear compartment (A375 [4]; A375, KPT-185 at IC50, 16 hr, no detectable protein at basal level): robust expression of HDM2 | Nuclear accumulation of phosphorylated MAPK (A375 [4]; A375, nuclear fraction, immunoblot): accumulated in the nuclear compartment | IC50 (Hs294T [11]): 0.0489 µM | IC50 (HEM-l [12]): 4.13 µM | IC50 (Wm1366 [13]): 0.347 µM | PARP cleavage (melanoma cell lines): cleavage of PARP | Growth Inhibition IC50 (HEMn-MP [16]): Not achieved | IC50 (HEMn-MP [16]; [21]): > 10.2 µM | IC50 (CHL-1 [17]): 0.592 µM | IC50 (FO-1 [18]): 0.0321 µM | IC50 (FO-1 [18]; Homo sapiens, 72 h): ~0.05 µM | Growth Inhibition IC50 (HEMn-DP [19]): Not achieved | IC50 (HEMn-DP [19]; [21]): > 10.2 µM
